# Patent US4045488A, “Aminophenyltetralin compounds” (Pfizer Inc., priority 1976, dated 1977)
# Structures can show the parent of a compound that is named as a salt.
# Legend:
# [1] = system: spontaneous motor activity; test: spontaneous motor activity in mice (circular actophotometers, activity counts); assay type: in vivo, mouse; conditions: for hyperactive response: same conditions, 0.32-32 mg./kg. i.p.
# Description: (§1) On the other hand, the activity of the compounds of the present invention, as psychomotor stimulants, is based on a variety of tests, including (1) a study of their motor activity in mice and (2) a measurement of their ability to influence the loss of avoidance behavior in rats trained on a non-discriminated (Sidman) avoidance schedule.
# A total of seven mice was employed at each dose level tested (viz., at 0.32, 1.0, 3.2, 10 and 32 mg./kg., i.p., respectively) and these mice were separated one to an activity cage. After an initial 1/2 hour exposure period (for acclimation purposes), each animal in the cage was treated with a sample of the drug intraperitoneally and immediately thereafter returned to said cage, with activity counts every 1/2 hour being recorded from that point on.
# [2] = psychotropic (antidepressant, psychomotor stimulant) activity and side effects of the compounds, general statements; assay type: in vivo; conditions: general statement; compounds and their hydrochloride acid addition salts
# [3] = system: non-discriminated (Sidman) avoidance behavior; test: non-discriminated (Sidman) avoidance behavior in rats, response rates; assay type: in vivo, rat; conditions: 5 and 10 mg./kg. i.p.
# Excerpt: as §1
# Eight mature male rats were trained in Lehigh Valley automatic multiple-operant conditioning chambers to avoid a 2.0 mA electric shock that would last for 0.75 second, or terminate sooner if the rat lever became activated during the shock. In these tests, lever presses postponed the onset of shock for an initial period of 30 seconds, while only 10 seconds elapsed between shocks if no intervening response was elicited. The rats were run for a 40-minute control period before receiving the drug and then for approximately 2.5 hours after each treatment.
compound,measurement,setting,value
"CN[C@@H]1CC[C@@H](c2ccccc2)c2ccccc21 (relative stereo) [Trans-isomer of Example IV, trans-dl-N-methyl-4-phenyl-1,2,3,4-tetrahydro-1-naphthylamine hydrochloride]",time course (duration) of effect,[1]; after 32 mg./kg.,especially long-lived
"c1ccc([C@@H]2CC[C@@H](NC3CC3)c3ccccc32)cc1 (relative stereo) [trans-dl-N-cyclopropyl-4-phenyl-1,2,3,4-tetrahydro-1-naphthylamine]",antidepressant activity,[2],markedly high degree of antidepressant activity
"CNCCCN1c2ccccc2CCc2ccccc21 [desmethylimipramine, reference compound]",hyperactive response,[1],failed to elicit any hyperactive response whatsoever
"CN[C@@H]1CC[C@@H](c2ccccc2)c2ccccc21 (relative stereo) [trans-dl-N-methyl-4-phenyl-1,2,3,4-tetrahydro-1-naphthylamine]",antidepressant activity,[2],markedly high degree of antidepressant activity
"CN[C@H]1CC[C@H](c2ccccc2)c2ccccc21 [Trans-l-isomer of Example III, trans-l-N-methyl-4-phenyl-1,2,3,4-tetrahydro-1-naphthylamine hydrochloride]",stimulant effect,[1]; tested at 10 and 32 mg./kg. i.p.,little evidence of a stimulant effect
"CCN[C@@H]1CC[C@@H](c2ccccc2)c2ccccc21 (relative stereo) [trans-dl-N-ethyl-4-phenyl-1,2,3,4-tetrahydro-1-naphthylamine]",antidepressant activity,[2],markedly high degree of antidepressant activity
"N[C@@H]1CC[C@@H](c2ccccc2)c2ccccc21 (relative stereo) [trans-dl-4-phenyl-1,2,3,4-tetrahydro-1-naphthylamine]",antidepressant activity,[2],markedly high degree of antidepressant activity
"CN[C@@H]1CC[C@@H](c2ccccc2)c2ccccc21 [Trans-d-isomer of Example III, trans-d-N-Methyl-4-phenyl-1,2,3,4-tetrahydro-1-naphthylamine as the hydrochloride]",effect on activity counts compared with d-amphetamine sulfate and methylphenidate,[1]; 10 mg./kg. i.p. versus d-amphetamine sulfate 3.2 mg./kg. and methylphenidate 10 mg./kg.,more pronounced than that of d-amphetamine sulfate at 3.2 mg./kg. and surpassing even that of methylphenidate at 10 mg./kg.
same,effect on activity counts,"[1]; 10 mg./kg. i.p., 30-60 minutes after treatment",markedly elevated the activity counts
same,time course (duration) of effect,[1]; 10 mg./kg. versus d-amphetamine sulfate 3.2 mg./kg.,even more prolonged in its effect than did that of d-amphetamine sulfate
same,duration of drug effect after administration,[3],approximately one and a half
same,start of drug effect,[3],≤ 20 min
same,effect on response rates,[3]; in four out of eight rats,moderate to marked increase in response rates
same,increase of response rates over normal pre-drug control levels,[3]; in four out of eight rats,2-6 times
same,increase of response rates over pre-drug control levels,[3]; in two other rats,about 1.5 times
"CN[C@@H]1CC[C@@H](c2ccccc2)c2ccccc21 [trans-d-N-methyl-4-phenyl-1,2,3,4-tetrahydro-1-naphthylamine]",antidepressant activity,[2],markedly high degree of antidepressant activity
"CN(C)[C@@H]1CC[C@@H](c2ccccc2)c2ccccc21 (relative stereo) [trans-dl-N,N-dimethyl-4-phenyl-1,2,3,4-tetrahydro-1-naphthylamine]",antidepressant activity,[2],markedly high degree of antidepressant activity
"CNCCCC1c2ccccc2C=Cc2ccccc21 [protriptlyine, reference compound]",hyperactive response,[1],failed to elicit any hyperactive response whatsoever
"CC(C)N[C@@H]1CC[C@@H](c2ccccc2)c2ccccc21 (relative stereo) [trans-dl-N-isopropyl-4-phenyl-1,2,3,4-tetrahydro-1-naphthylamine]",antidepressant activity,[2],markedly high degree of antidepressant activity
